Data reported in ChEMBL document CHEMBL5321204, “Hybrids of delavirdine and piperdin-4-yl-aminopyrimidines (DPAPYs) as potent HIV-1 NNRTIs: Design, synthesis and biological activities” (Eur J Med Chem, 2023).
pEC50, pIC50: −log10 of the molar value.

Assays:
[1] = system: Human immunodeficiency virus 1; assay: Antiviral activity against HIV-1 Y188L mutant infected in human MT4 cells assessed as protection against virus induced cytopathic effect and measured after 5 days by MTT spectrophotometric assay; type: functional, organism-based; settings: Human immunodeficiency virus 1, MT4, 120 h
[2] = system: Human immunodeficiency virus 1; assay: Antiviral activity against HIV-1 E138K mutant infected in human MT4 cells assessed as protection against virus induced cytopathic effect and measured after 5 days by MTT spectrophotometric assay; type: functional, organism-based; settings: Human immunodeficiency virus 1, MT4, 120 h
[3] = system: Human immunodeficiency virus 1; assay: Antiviral activity against HIV-1 F227L-V106A mutant infected in human MT4 cells assessed as protection against virus induced cytopathic effect and measured after 5 days by MTT spectrophotometric assay; type: functional, organism-based; settings: Human immunodeficiency virus 1, MT4, 120 h
[4] = system: Human immunodeficiency virus 1; assay: Antiviral activity against HIV-1 RES056 mutant infected in human MT4 cells assessed as protection against virus induced cytopathic effect and measured after 5 days by MTT spectrophotometric assay; type: functional, organism-based; settings: Human immunodeficiency virus 1, MT4, 120 h
[5] = target: Human immunodeficiency virus type 1 reverse transcriptase (Human immunodeficiency virus 1, UniProt Q72547); assay: Inhibition of HIV-1 reverse transcriptase using [2,8-3H]dGTP as substrate by […] assay
[6] = system: Human immunodeficiency virus 1; assay: Antiviral activity against HIV-1 L100I mutant infected in human MT4 cells assessed as protection against virus induced cytopathic effect and measured after 5 days by MTT spectrophotometric assay; type: functional, organism-based; settings: Human immunodeficiency virus 1, MT4, 120 h
[7] = Cytotoxicity against human MT4 cells assessed as reduction in cell viability incubated for 5 days by MTT spectrophotometric assay; type: toxicity, cell-based; settings: time 5 day
in vitro = settings: human, MT4 cells
Description: Selectivity index, ratio of CC50 for cytotoxicity against human MT4 cells assessed as reduction in cell viability to EC50 for antiviral activity against HIV-1 IIIb infected in human MT4 cells assessed as reduction in virus induced cytopathic effect

[8] = system: Human immunodeficiency virus 2; assay: Antiviral activity against HIV-2 ROD infected in human MT4 cells assessed as protection against virus induced cytopathic effect and measured after 5 days by MTT spectrophotometric assay; type: functional, organism-based; settings: Human immunodeficiency virus 2, ROD, MT4, 120 h
[9] = system: Human immunodeficiency virus 1; assay: microbe, parasite or virus in culture; settings: Human immunodeficiency virus 1, IIIb, MT4, 120 h
Description: Antiviral activity against HIV-1 IIIb infected in human MT4 cells assessed as protection against virus induced cytopathic effect and measured after 5 days by MTT spectrophotometric assay

[10] = system: Human immunodeficiency virus 1; assay: Antiviral activity against HIV-1 Y181C mutant infected in human MT4 cells assessed as protection against virus induced cytopathic effect and measured after 5 days by MTT spectrophotometric assay; type: functional, organism-based; settings: Human immunodeficiency virus 1, MT4, 120 h
[11] = system: Human immunodeficiency virus 1; assay: Antiviral activity against HIV-1 K103 N mutant infected in human MT4 cells assessed as protection against virus induced cytopathic effect and measured after 5 days by MTT spectrophotometric assay; type: functional, organism-based; settings: Human immunodeficiency virus 1, MT4, 120 h

Row | SMILES | pEC50 [1] | pEC50 [2] | pEC50 [3] | pEC50 [4] | pIC50 [5] | pEC50 [6] | CC50 at 120 h [7] [µM] | selectivity ratio (in vitro) | pEC50 [8] | pEC50 [9] | pEC50 [10] | pEC50 [11]
1 | Cc1cc(C#N)cc(C)c1Oc1ccnc(NC2CCN(C(=O)c3cc4cc(NS(C)(=O)=O)ccc4[nH]3)CC2)n1 | 5.42 | 6.68 | 5.44 | < 4.60 | 6.89 | 5.74 | 25 | 686 | < 4.60 | 7.44 | 6.14 | 6.27
2 | CS(=O)(=O)Nc1ccc2[nH]c(C(=O)N3CCC(Nc4nccc(Oc5ccccc5Br)n4)CC3)cc2c1 | 5.15 | 6.10 | 5.19 | < 4.77 | 5.85 | 5.17 | 17 | 60 | < 4.77 | 6.57 | 5.43 | 5.42
3 | Cc1cc(C)c(Oc2ccnc(NC3CCN(C(=O)c4cc5cc(NS(C)(=O)=O)ccc5[nH]4)CC3)n2)c(C)c1 | 6.12 | 7.48 | 5.51 | < 4.72 | 6.96 | 5.96 | 19 | 2150 | < 4.72 | 8.05 | 6.44 | 6.92
4 | CS(=O)(=O)Nc1ccc2[nH]c(C(=O)N3CCC(Nc4nccc(Oc5ccc(Cl)cc5)n4)CC3)cc2c1 | < 4.82 | 5.35 | < 4.82 | < 4.82 | 5.96 | 5.09 | 15 | 20 | < 4.82 | 6.13 | < 4.82 | 5.08
5 | Cc1cc(Oc2ccnc(NC3CCN(C(=O)c4cc5cc(NS(C)(=O)=O)ccc5[nH]4)CC3)n2)cc(C)c1Cl | < 5.28 | < 5.28 | < 5.28 | < 5.28 | 5.52 | < 5.28 | 5.3 | 4 | < 5.28 | 5.89 | < 5.28 | < 5.28
6 | Cc1cccc(C)c1Oc1ccnc(NC2CCN(C(=O)c3cc4cc(NS(C)(=O)=O)ccc4[nH]3)CC2)n1 | 6.17 | 7.10 | 5.57 | < 4.68 | 4.92 | 5.48 | 21 | 678 | < 4.68 | 7.49 | 6.08 | 6.28
7 | CS(=O)(=O)Nc1ccc2[nH]c(C(=O)N3CCC(Nc4nccc(Oc5ccc(Br)cc5)n4)CC3)cc2c1 | < 5.04 | 5.17 | < 5.04 | < 5.04 | 5.66 | 5.15 | 9.1 | 10 | < 5.04 | 6.06 | < 5.04 | 5.09
8 | CS(=O)(=O)Nc1ccc2[nH]c(C(=O)N3CCC(Nc4nccc(Oc5cccc(C(F)(F)F)c5)n4)CC3)cc2c1 | < 4.80 | 5.38 | < 4.80 | < 4.80 | 5.74 | < 4.80 | 16 | 16 | < 4.80 | 6.00 | < 4.80 | < 4.80
9 | CS(=O)(=O)Nc1ccc2[nH]c(C(=O)N3CCC(Nc4nccc(Oc5ccc(C#N)cc5)n4)CC3)cc2c1 | < 3.72 | 5.14 | < 3.72 | < 3.72 | 5.96 | < 3.72 | 192 | 62 | < 3.72 | 5.51 | < 3.72 | < 3.72
10 | Cc1ccccc1Oc1ccnc(NC2CCN(C(=O)c3cc4cc(NS(C)(=O)=O)ccc4[nH]3)CC2)n1 | < 4.89 | 6.00 | < 4.89 | < 4.89 | 5.07 | < 4.89 | 13 | 41 | < 4.89 | 6.48 | 5.05 | 5.06
11 | CS(=O)(=O)Nc1ccc2[nH]c(C(=O)N3CCC(Nc4nccc(Oc5cccc(F)c5)n4)CC3)cc2c1 | < 4.82 | 5.14 | < 4.82 | < 4.82 | 5.38 | < 4.82 | 15 | 3 | < 4.82 | 5.24 | < 4.82 | < 4.82
12 | CS(=O)(=O)Nc1ccc2[nH]c(C(=O)N3CCC(Nc4nccc(Oc5cccc(Br)c5)n4)CC3)cc2c1 | < 4.85 | 5.46 | 5.09 | < 4.85 | 5.47 | 5.14 | 14 | 21 | < 4.85 | 6.17 | 5.09 | 5.12
13 | CS(=O)(=O)Nc1ccc2[nH]c(C(=O)N3CCC(Nc4nccc(Oc5ccc(Br)cc5F)n4)CC3)cc2c1 | < 4.10 | 5.52 | < 4.10 | < 4.10 | 6.96 | 4.49 | 80 | 84 | < 4.10 | 6.03 | 4.54 | 4.64
14 | CS(=O)(=O)Nc1ccc2[nH]c(C(=O)N3CCC(Nc4nccc(Oc5cccc(Cl)c5)n4)CC3)cc2c1 | 5.04 | 5.26 | 5.06 | < 4.85 | 6.47 | 5.09 | 14 | 20 | < 4.85 | 6.15 | 5.05 | 5.09
15 | CS(=O)(=O)Nc1ccc2[nH]c(C(=O)N3CCC(Nc4nccc(Oc5ccc(C(F)(F)F)cc5)n4)CC3)cc2c1 | < 4.74 | 5.24 | < 4.74 | < 4.74 | 5.89 | < 4.74 | 18 | 10 | < 4.74 | 5.74 | < 4.74 | < 4.74
16 | Cc1cccc(Oc2ccnc(NC3CCN(C(=O)c4cc5cc(NS(C)(=O)=O)ccc5[nH]4)CC3)n2)c1 | < 4.57 | < 4.57 | < 4.57 | < 4.57 | 5.92 | < 4.57 | 27 | 5 | < 4.57 | 5.26 | < 4.57 | < 4.57
17 | CS(=O)(=O)Nc1ccc2[nH]c(C(=O)N3CCC(Nc4nccc(Oc5cccc(C#N)c5)n4)CC3)cc2c1 | < 4.54 | 5.06 | < 4.55 | < 4.54 | 6.22 | < 4.54 | 29 | 8 | < 4.54 | 5.43 | < 4.54 | < 4.54
18 | CS(=O)(=O)Nc1ccc2[nH]c(C(=O)N3CCC(Nc4nccc(Oc5ccccc5Cl)n4)CC3)cc2c1 | 5.11 | 6.01 | 5.08 | < 4.82 | 5.80 | 5.12 | 15 | 35 | < 4.82 | 6.37 | 5.23 | 5.19
19 | O=C1Nc2ccc(Cl)cc2[C@@](C#CC2CC2)(C(F)(F)F)O1 [EFAVIRENZ] | 6.49 | 8.15 | 6.39 | 6.24 |  | 7.17 | > 6.3 |  |  |  |  | 6.85
20 | Cc1cc(C#N)cc(C)c1Oc1nc(Nc2ccc(C#N)cc2)nc(N)c1Br [ETRAVIRINE] | 7.52 | 7.77 | 7.52 | 7.00 |  | 7.92 | > 4.6 | > 1430 |  |  |  | 8.40
21 | Nc1ccn([C@@H]2CS[C@H](CO)O2)c(=O)n1 [LAMIVUDINE] | 5.39 | 5.13 | 5.09 | 5.00 |  | 5.77 | > 87 | > 11 |  | 5.08 | 5.46 | 5.33
22 | Cc1ccnc2c1NC(=O)c1cccnc1N2C1CC1 [NEVIRAPINE] | < 4.82 | 6.51 | < 4.82 | < 4.82 |  | 5.66 | > 15 |  |  | 6.72 |  | 5.13
23 | Cc1cn([C@H]2C[C@H](N=[N+]=[N-])[C@@H](CO)O2)c(=O)[nH]c1=O [ZIDOVUDINE] | 7.64 |  | 7.59 | 7.46 |  | 8.05 | > 7.1 | > 290 | 7.68 | 7.62 | 7.72 | 7.49
